The values that follow come from patent publication US20260250318A1, “COMPOSITIONS AND METHODS FOR CROSSING THE BLOOD BRAIN BARRIER” (VOYAGER THERAPEUTICS, INC., priority 2022, published 2026).

Experiment [1] concerns brains, heart, liver, muscle, and DRG of the NHPs. Kind of experiment: Maturation of TTM-001 and TTM-002 capsids, NGS enrichment in NHP tissues. Particulars: relative to AAV9 control. The class given is in vivo. In outline: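 Variants carry mutations within and flanking the loop IV peptide insert: positions 450–466 were triplet-randomized, while positions 449–466 received low-frequency point mutations. The combined pool went into two NHPs, and each peptide was scored by NGS enrichment ratio against AAV9.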

The subject of a further experiment is brain. Kind of experiment: Matured TTM-001 and TTM-002 variants, NGS enrichment in mouse brain. Particulars: mouse brain, relative to AAV9 control. The class given is in vivo, mice.
Where [2] appears, read: NGS fold-enrichment of matured AAV capsid variants, RNA.
Where [3] appears, read: NGS fold-enrichment, NHP liver DNA.
[4] abbreviates: NGS fold-enrichment, NHP liver RNA.

On to KTELRSGSPHSKAQNQQT, for which the “Fold Enrichment relative to AAV9, Brain (NHP)” value in experiment [1] (setting [2]) was found to be 54.289 fold. In addition, in experiment [1], the “Fold Enrichment relative to AAV9, DRG (NHP)” value is recorded as 0.000 fold; the “Fold Enrichment relative to AAV9, Heart (NHP)” value turned out to be 0.007 fold; the “Fold Enrichment relative to AAV9, Muscle (NHP)” value was found to be 0.040 fold. Also, in experiment [1] (NHP liver, DNA), the “Fold Enrichment relative to AAV9, Liver DNA (NHP)” value was found to be 0.239 fold. Also, in experiment [1] (NHP liver, RNA), the “Fold Enrichment relative to AAV9, Liver RNA (NHP)” value worked out at 0.790 fold. Also, the “Fold Enrichment relative to AAV9, Brain (Mouse)” value in the experiment on brain is listed as 57.814 fold.
Consider KTDRSSGSPHSKAQNQQT, for which, in experiment [1] (setting [2]), the “Fold Enrichment relative to AAV9, Brain (NHP)” value was 52.737 fold. In experiment [1], the “Fold Enrichment relative to AAV9, DRG (NHP)” value stood at 0.000 fold; the “Fold Enrichment relative to AAV9, Heart (NHP)” value is 0.000 fold; the “Fold Enrichment relative to AAV9, Muscle (NHP)” value worked out at 0.000 fold. Besides, the “Fold Enrichment relative to AAV9, Liver DNA (NHP)” value in experiment [1] (NHP liver, DNA) is reported as 0.085 fold. Also, in experiment [1] (NHP liver, RNA), the “Fold Enrichment relative to AAV9, Liver RNA (NHP)” value is recorded as 0.995 fold. Also, in the experiment on brain, the “Fold Enrichment relative to AAV9, Brain (Mouse)” value is reported as 123.421 fold.
KTINGHESPHKSGQNIQP: in experiment [1] (NGS fold-enrichment of RNA), the “Fold Enrichment relative to AAV9, Brain (NHP)” value is 253.840 fold. Further, in experiment [1] (NGS fold-enrichment), the “Fold Enrichment relative to AAV9, DRG (NHP)” value amounted to 0.000 fold; the “Fold Enrichment relative to AAV9, Heart (NHP)” value came to 0.000 fold; the “Fold Enrichment relative to AAV9, Muscle (NHP)” value is given as 0.000 fold. Further, the “Fold Enrichment relative to AAV9, Liver DNA (NHP)” value in experiment [1] (setting [3]) is 0.000 fold. Also, the “Fold Enrichment relative to AAV9, Liver RNA (NHP)” value in experiment [1] (setting [4]) is 0.000 fold. The “Fold Enrichment relative to AAV9, Brain (Mouse)” value in the experiment with brain (NGS fold-enrichment) worked out at 14.042 fold.
On to “TTINGHDSPHKSGQNQQT (peptide inserted in AAV capsid)”, for which the “Fold Enrichment relative to AAV9, Brain (NHP)” value in experiment [1] (NGS fold-enrichment of RNA) came out at 108.963 fold. Also, in experiment [1] (NGS fold-enrichment), the “Fold Enrichment relative to AAV9, DRG (NHP)” value is given as 1.512 fold; the “Fold Enrichment relative to AAV9, Heart (NHP)” value was determined as 3.445 fold; the “Fold Enrichment relative to AAV9, Muscle (NHP)” value is on record as 0.869 fold. In experiment [1] (setting [3]), the “Fold Enrichment relative to AAV9, Liver DNA (NHP)” value is on record as 1.109 fold. For the same sequence, in experiment [1] (setting [4]), the “Fold Enrichment relative to AAV9, Liver RNA (NHP)” value came out at 0.659 fold. Besides, the “Fold Enrichment relative to AAV9, Brain (Mouse)” value with brain (NGS fold-enrichment) is reported as 14.788 fold.
Regarding KTVNGSGSPHSKSQNQQT, the “Fold Enrichment relative to AAV9, Brain (NHP)” value in experiment [1] (setting [2]) came to 52.395 fold. Moreover, in experiment [1], the “Fold Enrichment relative to AAV9, DRG (NHP)” value came to 0.033 fold; the “Fold Enrichment relative to AAV9, Heart (NHP)” value worked out at 0.077 fold; the “Fold Enrichment relative to AAV9, Muscle (NHP)” value worked out at 0.013 fold. The “Fold Enrichment relative to AAV9, Liver DNA (NHP)” value in experiment [1] (NHP liver, DNA) came to 0.175 fold. Besides, in experiment [1] (NHP liver, RNA), the “Fold Enrichment relative to AAV9, Liver RNA (NHP)” value was found to be 0.105 fold. Besides, in the experiment with brain, the “Fold Enrichment relative to AAV9, Brain (Mouse)” value stood at 58.000 fold.
On to KSELGSGSPHSKAQNQQT, for which the “Fold Enrichment relative to AAV9, Brain (NHP)” value in experiment [1] (setting [2]) is recorded as 55.997 fold. For the same sequence, in experiment [1], the “Fold Enrichment relative to AAV9, DRG (NHP)” value was 0.000 fold; the “Fold Enrichment relative to AAV9, Heart (NHP)” value is 0.005 fold; the “Fold Enrichment relative to AAV9, Muscle (NHP)” value was 0.000 fold. For the same sequence, the “Fold Enrichment relative to AAV9, Liver DNA (NHP)” value in experiment [1] (NHP liver, DNA) stood at 0.239 fold. Besides, the “Fold Enrichment relative to AAV9, Liver RNA (NHP)” value in experiment [1] (NHP liver, RNA) was found to be 0.881 fold. In addition, the “Fold Enrichment relative to AAV9, Brain (Mouse)” value in the experiment on brain is listed as 120.521 fold.
Consider KTIDGHDSPHKSGRNQQI, for which the “Fold Enrichment relative to AAV9, Brain (NHP)” value in experiment [1] (NGS fold-enrichment of RNA) was 80.240 fold. Besides, in experiment [1] (NGS fold-enrichment), the “Fold Enrichment relative to AAV9, DRG (NHP)” value came to 0.000 fold; the “Fold Enrichment relative to AAV9, Heart (NHP)” value was found to be 0.037 fold; the “Fold Enrichment relative to AAV9, Muscle (NHP)” value turned out to be 0.000 fold. Besides, in experiment [1] (setting [3]), the “Fold Enrichment relative to AAV9, Liver DNA (NHP)” value is given as 0.144 fold. The “Fold Enrichment relative to AAV9, Liver RNA (NHP)” value in experiment [1] (setting [4]) turned out to be 0.040 fold. Further, in the experiment with brain (NGS fold-enrichment), the “Fold Enrichment relative to AAV9, Brain (Mouse)” value is listed as 10.363 fold.
In the case of KAINGSGSPHSKAHNQET, the “Fold Enrichment relative to AAV9, Brain (NHP)” value in experiment [1] (setting [2]) came out at 52.973 fold. Besides, in experiment [1], the “Fold Enrichment relative to AAV9, DRG (NHP)” value came out at 0.000 fold; the “Fold Enrichment relative to AAV9, Heart (NHP)” value is recorded as 0.030 fold; the “Fold Enrichment relative to AAV9, Muscle (NHP)” value is on record as 0.000 fold. Further, in experiment [1] (NHP liver, DNA), the “Fold Enrichment relative to AAV9, Liver DNA (NHP)” value stood at 0.058 fold. Moreover, in experiment [1] (NHP liver, RNA), the “Fold Enrichment relative to AAV9, Liver RNA (NHP)” value is 0.035 fold. The “Fold Enrichment relative to AAV9, Brain (Mouse)” value in the experiment with brain is recorded as 71.809 fold.
As to KTINGSGSPHSKAQRTCT, the “Fold Enrichment relative to AAV9, Brain (NHP)” value in experiment [1] (setting [2]) came to 57.863 fold. In experiment [1], the “Fold Enrichment relative to AAV9, DRG (NHP)” value is reported as 0.000 fold; the “Fold Enrichment relative to AAV9, Heart (NHP)” value is listed as 0.140 fold; the “Fold Enrichment relative to AAV9, Muscle (NHP)” value stood at 0.129 fold. In addition, the “Fold Enrichment relative to AAV9, Liver DNA (NHP)” value in experiment [1] (NHP liver, DNA) was determined as 1.716 fold. Also, the “Fold Enrichment relative to AAV9, Liver RNA (NHP)” value in experiment [1] (NHP liver, RNA) turned out to be 1.855 fold. For the same sequence, the “Fold Enrichment relative to AAV9, Brain (Mouse)” value in the experiment with brain stood at 90.146 fold.
